Reference: paper doi:10.1101/2024.04.09.588698v1 (biorxiv, 2024)
Changes are numbered by the printed parent chain.

Experiments:
Htc10-LBD [1] = molecular target: T1, Htc10-LBD (Vreelandella titanicae, UniProt L9UCI1); conditions: Biolog plate screen, est. 3-6 mM; binder
T1 sequence (L9UCI1 48-325): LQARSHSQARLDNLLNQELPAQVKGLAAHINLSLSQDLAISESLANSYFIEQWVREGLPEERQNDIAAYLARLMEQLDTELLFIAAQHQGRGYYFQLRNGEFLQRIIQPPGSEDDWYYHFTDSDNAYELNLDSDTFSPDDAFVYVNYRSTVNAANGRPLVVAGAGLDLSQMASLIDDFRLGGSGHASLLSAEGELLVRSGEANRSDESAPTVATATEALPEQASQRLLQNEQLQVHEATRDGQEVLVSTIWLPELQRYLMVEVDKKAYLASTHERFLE

Htc10-LBD [2] = molecular target: T1, Htc10-LBD; test: biochemical; conditions: read-out: ΔTm (ºC) 10 mM solution
Htc10-LBD [3] = molecular target: T2, Htc10-LBD (Vreelandella titanicae, UniProt L9UCI1, Y141F); test: isothermal titration calorimetry; type: binding
T2 sequence (L9UCI1 48-325 Y141F): T1 sequence (L9UCI1 48-325) with Y94F

Htc10-LBD [4] = molecular target: T1, Htc10-LBD; test: isothermal titration calorimetry; type: binding
Htc10-LBD [5] = molecular target: T3, Htc10-LBD (Vreelandella titanicae, UniProt L9UCI1, D179A/N177A/Y141F); test: isothermal titration calorimetry; type: binding
T3 sequence (L9UCI1 48-325 Y141F/N177A/D179A): T1 sequence (L9UCI1 48-325) with Y94F, N130A, D132A

Htc10-LBD [6] = molecular target: T1, Htc10-LBD; test: biochemical

ΔTm (ºC) Biolog plates (Htc10-LBD [1]) [degC]	ΔTm at 10000 µM (Htc10-LBD [2]) [°C]	Structure (SMILES)	also measured
6.5	–	O=c1[nH]cnc2c1ncn2[C@H]1C[C@H](O)[C@@H](CO)O1 [2-deoxy-inosine]	–
2.0	1.7	Cc1c[nH]c(=O)[nH]c1=O [Thymine]	–
–	3	O=c1cc[nH]c(=O)[nH]1 [Uracil]	–
–	3	O=c1[nH]cnc2c1ncn2[C@@H]1O[C@H](CO)[C@@H](O)[C@H]1O [Inosine]	–
2.0	0	Cc1cn([C@H]2C[C@H](O)[C@@H](CO)O2)c(=O)[nH]c1=O [Thymidine]	–
2.5	0.5	Nc1nc2c(ncn2[C@@H]2O[C@H](CO)[C@@H](O)[C@H]2O)c(=O)[nH]1 [Guanosine]	–
2.5	-8	O=c1[nH]c(=O)c2nc[nH]c2[nH]1 [Xanthine]	–

Structure (SMILES)	ΔTm (ºC) Biolog plates (Htc10-LBD [1]) [degC]	ΔTm at 10000 µM (Htc10-LBD [2]) [°C]	also measured
Nc1nc2nc[nH]c2c(=O)[nH]1 [guanine]	–	6	Kd (Htc10-LBD [3]): 25 ± 2 µM; Kd (Htc10-LBD [4]): 7 ± 0.6 µM; Kd (Htc10-LBD [5]): 118 ± 9 µM; ΔTm at 600 µM (Htc10-LBD [6]; read-out: ΔTm (ºC) gua): 5.2 °C
O=c1[nH]cnc2nc[nH]c12 [hypoxanthine]	8.0	16	Kd (Htc10-LBD [3]): 13.9 ± 0.9 µM; Kd (Htc10-LBD [4]): 2.5 ± 0.3 µM; Kd (Htc10-LBD [5]): 140 ± 9 µM; ΔTm at 500 µM (Htc10-LBD [6]; read-out: ΔTm (ºC) hyp): 10.6 °C
